What follows are compounds tested against T1, SLC43A3 (equilibrative nucleobase transporter 1, ENBT1) (Homo sapiens, UniProt Q8NBI5) (assay: cell-based). Details: not given.
T1 sequence (Q8NBI5 1-491): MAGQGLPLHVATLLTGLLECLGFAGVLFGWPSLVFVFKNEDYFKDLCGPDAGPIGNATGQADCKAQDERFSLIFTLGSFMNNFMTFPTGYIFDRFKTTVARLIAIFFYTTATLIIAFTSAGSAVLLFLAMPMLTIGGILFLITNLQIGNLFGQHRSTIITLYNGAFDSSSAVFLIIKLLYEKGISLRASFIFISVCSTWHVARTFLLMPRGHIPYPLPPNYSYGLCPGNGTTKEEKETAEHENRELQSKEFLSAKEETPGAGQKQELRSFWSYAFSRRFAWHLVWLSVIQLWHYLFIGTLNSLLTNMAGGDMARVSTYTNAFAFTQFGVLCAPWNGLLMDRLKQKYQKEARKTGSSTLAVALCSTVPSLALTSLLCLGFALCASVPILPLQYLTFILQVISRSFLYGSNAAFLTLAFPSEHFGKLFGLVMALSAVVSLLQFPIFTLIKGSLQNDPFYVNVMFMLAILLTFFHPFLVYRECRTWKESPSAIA

Row | SMILES | IC50
1 | O=c1[nH]cnc2nc[nH]c12 [hypoxanthine] | 350 µM

Each compound was assayed against T1, SLC43A3 (equilibrative nucleobase transporter 1, ENBT1) (assay: inhibition of ENBT1-specific [3H]adenine uptake, about […] at […]). Details: read-out: % inhibition at 200 μM.
Format: cell-based
Design: full length, 491 amino acid residues, stably expressed in MDCKII cells

Row | SMILES | inhibition at 200 µM
2 | O=[N+]([O-])c1ccc(CSc2ncnc3c2ncn3C2OC(CO)C(O)C2O)cc1 (centres unmarked) [nitrobenzylthioinosine] | ~40%

Each compound was assayed against T1, SLC43A3 (equilibrative nucleobase transporter 1, ENBT1) (assay: inhibition of ENBT1-specific [3H]adenine uptake at […]). Details: not given.
Format: cell-based
Design: full length, 491 amino acid residues, stably expressed in MDCKII cells

Row | SMILES | inhibition of ENBT1-specific [3H]adenine uptake at 200 uM
3 | c1ncc2nc[nH]c2n1 [purine] | purine and its several analogs, such as 6-thioguanine and mercaptopurine, showed inhibitory activities, suggesting that they are also substrates
4 | S=c1[nH]cnc2nc[nH]c12 [mercaptopurine] | purine and its several analogs, such as 6-thioguanine and mercaptopurine, showed inhibitory activities, suggesting that they are also substrates
5 | Nc1nc2nc[nH]c2c(=S)[nH]1 [6-thioguanine] | purine and its several analogs, such as 6-thioguanine and mercaptopurine, showed inhibitory activities, suggesting that they are also substrates

What follows are compounds tested against T1, SLC43A3 (equilibrative nucleobase transporter 1, ENBT1) (assay: inhibition of ENBT1-mediated [3H]hypoxanthine uptake; radiolabeled uptake (apparent Km […])). Details: not given.
Format: cell-based
Design: full length, 491 amino acid residues, stably expressed in MDCKII cells

Row | SMILES | IC50
6 | Nc1ncnc2nc[nH]c12 [adenine] | 13 µM

What follows are compounds tested against T1, SLC43A3 (equilibrative nucleobase transporter 1, ENBT1) (assay: inhibition of ENBT1-mediated [3H]adenine uptake; radiolabeled uptake (apparent Km […])). Details: not given.
Format: cell-based
Design: full length, 491 amino acid residues, stably expressed in MDCKII cells

Row | SMILES | IC50
7 | Nc1nc2nc[nH]c2c(=O)[nH]1 [guanine] | 70 µM

Each compound was assayed against T1, SLC43A3 (equilibrative nucleobase transporter 1, ENBT1) (assay: cell-based). Details: MDCK-II; [3H]adenine 5 nM, pH 7.4, 22 C, 40 s; read-out: Uptake rate (% of control).
Design: full length, 491 amino acid residues, stably expressed in MDCKII cells; species or system MDCKII stably expressing ENBT1; inhibition of ENBT1-specific [3H]adenine (5 nM) uptake, 40 s, 22 C, mock-subtracted, scintillation counting
Method: MDCKII cells stably expressing ENBT1 (1.5 × 10^5 cells/well initially) were grown on 24-well plates for 72 h. The cells in each well were preincubated in 0.25 ml of substrate-free uptake buffer (140 mM NaCl, 5 mM KCl, 0.4 mM KH2PO4, 0.8 mM MgSO4, 1.0 mM CaCl2, 25 mM glucose, and 10 mM HEPES, pH 7.4) for 5 min, unless otherwise indicated. Uptake assays were started by replacing the substrate-free uptake buffer for preincubation with one containing the radioisotope-labeled substrate (0.25 ml). All of the procedures were conducted at 22 °C or 37 °C. Assays were stopped by addition of ice-cold substrate-free uptake buffer (2 ml), and the cells were washed two times with 2 ml of the same buffer. The cells were solubilized in 0.5 ml of 0.2 M NaOH solution containing 0.5% SDS at room temperature for 1 h, and the associated radioactivity was measured by [compound left out] scintillation counting. Cellular protein content was determined by the method of Lowry et al.[28] using bovine serum albumin as the standard. Uptake assays were also conducted in mock cells, which were transfected with empty pCI-neo vector, to estimate nonspecific uptake. To further explore the substrate specificity of ENBT1, we examined the effect of various compounds (10 μM for decynium-22 and 200 μM for the others) on the ENBT1-mediated uptake of [^3H]adenine in SLC43A3 cells (Fig. 2D). […] Because these two molecules were transported by SLC43A3 minimally (Fig. 2A), they are likely to be recognized as very poor substrates with affinities extremely low to act as competitive inhibitors. […] We also examined the effect of various amino acids (5 mM), as ENBT1 is a member of the amino acid transporter family; however, none of them affected the adenine uptake activity of SLC43A3 cells (see Supplementary Table S1 online), supporting a previo

Row | SMILES | remaining activity at 5000 µM
8 | N[C@@H](CS)C(=O)O [Cysteine] | 104 ± 0.8%
9 | NC(=O)CC[C@H](N)C(=O)O [Glutamine] | 105 ± 1.3%
10 | C[C@H](N)C(=O)O [Alanine] | 103 ± 4%
11 | N[C@@H](CCC(=O)O)C(=O)O [Glutamate] | 103 ± 1.6%
12 | N[C@@H](CC(=O)O)C(=O)O [Aspartate] | 99.9 ± 1.3%
13 | CC[C@H](C)[C@H](N)C(=O)O [Isoleucine] | 100 ± 1.3%
14 | N=C(N)NCCC[C@H](N)C(=O)O [Arginine] | 95.8 ± 1.7%
15 | N[C@@H](Cc1c[nH]cn1)C(=O)O [Histidine] | 101 ± 1.8%
16 | NC(=O)C[C@H](N)C(=O)O [Asparagine] | 103 ± 2.7%

Further lines, results first:

Row | remaining activity at 5000 µM | SMILES
17 | 101 ± 1.6% | CC(C)[C@H](N)C(=O)O [Valine]
18 | 103.4 ± 1% | O=C(O)[C@@H]1CCCN1 [Proline]
19 | 94 ± 2.5% | CC(C)C[C@H](N)C(=O)O [Leucine]
20 | 96.6 ± 1.2% | NCCCC[C@H](N)C(=O)O [Lysine]
21 | 105.7 ± 1% | N[C@@H](Cc1ccc(O)cc1)C(=O)O [Tyrosine]
22 | 95.6 ± 1.8% | N[C@@H](Cc1c[nH]c2ccccc12)C(=O)O [Tryptophan]
23 | 95.8 ± 1.4% | CSCC[C@H](N)C(=O)O [Methionine]
24 | 99.7 ± 0.7% | C[C@@H](O)[C@H](N)C(=O)O [Threonine]
25 | 105 ± 2.2% | N[C@@H](CO)C(=O)O [Serine]
26 | 98.7 ± 1.1% | N[C@@H](Cc1ccccc1)C(=O)O [Phenylalanine]

Reference: article PMC4796657, “Functional identification of SLC43A3 as an equilibrative nucleobase transporter involved in purine salvage in mammals” (Scientific Reports, 2015)
